Experiments:
[1] = biological target: T1, 5-Lipoxygenase from RBL-1 20,000xg Supernatant (Rattus norvegicus, UniProt P12527); experiment: 5-lipoxygenase inhibitory activity, 20,000 xg supernatant from homogenized RBL-1 cells; assay type: biochemical; conditions: radiolabeled arachidonic acid, triplicate
T1 construct: 20,000 xg supernatant from 1.5 million homogenized RBL-1 cells; endogenous in cells; host or cells: RBL-1 cells (20,000 xg supernatant of homogenate)
T1 sequence (P12527 1-673): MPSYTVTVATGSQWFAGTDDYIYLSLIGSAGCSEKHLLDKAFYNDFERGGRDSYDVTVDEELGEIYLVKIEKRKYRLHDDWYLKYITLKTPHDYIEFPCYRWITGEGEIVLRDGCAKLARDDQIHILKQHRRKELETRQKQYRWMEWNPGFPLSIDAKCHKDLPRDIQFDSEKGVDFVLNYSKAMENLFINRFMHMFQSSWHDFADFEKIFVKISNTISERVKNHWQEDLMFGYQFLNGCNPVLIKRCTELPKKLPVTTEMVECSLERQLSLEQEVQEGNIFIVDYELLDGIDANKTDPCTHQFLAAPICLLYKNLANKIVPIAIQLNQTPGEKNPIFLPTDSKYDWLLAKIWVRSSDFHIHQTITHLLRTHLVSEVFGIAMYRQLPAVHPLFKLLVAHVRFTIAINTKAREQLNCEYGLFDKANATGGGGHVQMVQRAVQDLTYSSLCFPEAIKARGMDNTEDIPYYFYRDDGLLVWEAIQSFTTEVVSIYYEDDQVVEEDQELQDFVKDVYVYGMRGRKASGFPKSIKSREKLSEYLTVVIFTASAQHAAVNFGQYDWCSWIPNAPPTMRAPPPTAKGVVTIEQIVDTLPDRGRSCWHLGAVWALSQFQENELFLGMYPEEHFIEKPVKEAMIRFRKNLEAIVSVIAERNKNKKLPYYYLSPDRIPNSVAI
Description: Assays to determine 5-lipoxygenase inhibitory activity of representative compounds of the present invention were performed in […] incubations containing the 20,000 xg supernatant from 1.5 million homogenized RBL-1 cells and various concentrations of the test compound. Reactions were initiated by addition of radiolabeled arachidonic acid and terminated by acidification and ether extraction. Reaction products were separated from nonconverted substrate by thin layer chromatography and measured by liquid scintillation spectroscopy. All incubations are performed in triplicate. Inhibition of 5-lipoxygenase activity was calculated as the ratio of the amount of product formed in the presence and absence of inhibitor. […] (Dyer, R. D.; Haviv, F.; Hanel, A. M.; Bornemier, D. A.; Carter, G. W. Fed. Proc., Fed. Am. Soc. Exp. Biol. 1984, 43, 1462A).

[2] = tested on: Leukotrienes (biosynthesis); experiment: Inhibition of leukotriene biosynthesis in vivo after oral administration, rat peritoneal anaphylaxis model; conditions: 1 h, gavage one hour prior to antigen challenge, read-out: Percent Inhibition of Leukotrienes; for inhibition in vivo at 100 µmol/kg: Oral Dose at 100 μmol/kg; for inhibition in vivo at 30 µmol/kg: Oral Dose at 30 μmol/kg
Description: Inhibition of the biosynthesis of leuktrienes in vivo after oral administration of compound was determined using a rat peritoneal anaphylaxis model in a similar manner as that described by Young and coworkers (Young, P. R.; Dyer, R. D.; Carter, G. W. Fed. Proc., Fed. Am. Soc. Exp. Biol. 1985, 44, 1185). In this model rats were injected intraperitoneally (ip) with rabbit antibody to bovine serum albumin (BSA) and three hours later injected ip with BSA to induce an antgen-antibody response. Rats were sacrificed 15 minutes after this challenge and the peritoneal fluids were collected and analyzed for leukotriene levels. Test compounds were administered by gavage one hour prior to the antigen challenge. Percent inhibition values were determined by comparing the treatment group to the mean of the control group.

Row | IC50 [1] [nM] | SMILES | inhibition in vivo at 100 µmol/kg [2] [%] | inhibition in vivo at 30 µmol/kg [2] [%]
1 | 5900 | NC(=O)N(O)CC#Cc1ccccc1 [Example 32, N-Hydroxy-N,(3,phenyl-2-propynyl)urea] | 97 | 
2 | 500 | NC(=O)N(O)CC#Cc1cccc(Oc2ccccc2)c1 [Example 33, N-Hydroxy-N-[3-(3-phenoxyphenyl)-2-propynyl]urea] | 99 | 
3 | 600 | Cc1ccc(Oc2cccc(C#CCN(O)C(N)=O)c2)cc1 [Example 36, N-Hydroxy-N-[3-[3-(4-methylphenoxy)phenyl]-2-propynyl]urea] | 99 | 
4 | 600 | COc1ccc(Oc2cccc(C#CCN(O)C(N)=O)c2)cc1 [Example 39] | 96 | 
5 | 500 | CC(C#Cc1cccc(Oc2ccc(Cl)cc2)c1)N(O)C(N)=O (centres unmarked) [Example 42, N-Hydroxy-N-[4-[3-(4-chlorophenoxy)phenyl]-3-butyn-2-yl]urea] | 66 | 
6 | 300 | CC(C#Cc1cccc(Oc2ccc(F)cc2)c1)N(O)C(N)=O (centres unmarked) [Example 43, N-Hydroxy-N-[4-[3-(4-fluorophenoxy)phenyl]-3-butyn-2-yl]urea] | 98 | 
7 | 400 | NC(=O)N(O)CC#Cc1cccc(Oc2ccc(F)cc2)c1 [Example 44, N-Hydroxy-N-[3-[3-(4-fluorophenoxy)phenyl]-2-propynyl]urea] | 99 | 
8 | 1200 | CC(C#Cc1cccc(Oc2ccncc2)c1)N(O)C(N)=O (centres unmarked) [Example 46, N-Hydroxy-N-[4-[3-(4-pyridinyloxy)phenyl]-3-butyn-2-yl]urea] | 98 | 
9 | 900 | CC(C#Cc1cccc(Oc2ccccn2)c1)N(O)C(N)=O (centres unmarked) [Example 47, N-Hydroxy-N-[4-[3-(2-pyridinyloxy)phenyl]-3-butyn-2-yl]urea] | 99 | 
10 | 600 | CCC(C#Cc1cccc(Oc2ccccn2)c1)N(O)C(N)=O (centres unmarked) [Example 64, N-Hydroxy-N-[5-[3-(2-pyridinyloxy)phenyl]-4-pentyn-3-yl]urea] |  | 78
11 | 200 | CC(C#Cc1cccc(Oc2cccc(Cl)n2)c1)N(O)C(N)=O (centres unmarked) [Example 68, N-Hydoxy-N-[4-[3-(6-chloropyridin-2-yloxy)phenyl]-3-butyn-2-yl]urea] |  | 61

Second part, the compound before the results:

Row | SMILES | IC50 [1] [nM] | inhibition in vivo at 100 µmol/kg [2] [%] | inhibition in vivo at 30 µmol/kg [2] [%]
12 | CC(C#CCc1ccccc1)N(O)C(N)=O (centres unmarked) [Example 30, N-Hydroxy-N-(5-phenyl-3-pentyn-2-yl)urea] | 2100 | 95 | 
13 | CC(C#Cc1ccoc1)N(O)C(N)=O (centres unmarked) [Example 34, N-Hydroxy-N-[4-(3-furyl)-3-butyn-2-yl]urea] | 7000 | 96 | 
14 | CC(C#Cc1ccc(Oc2ccc(F)cc2)o1)N(O)C(N)=O (centres unmarked) [Example 57, N-hydroxy-N-{4-[5-(4-fluorophenoxy)-2-furyl]-3-butyn-2-yl}urea] | 200 |  | 83
15 | CC(C#Cc1ccc(Oc2ccccc2)o1)N(O)C(N)=O (centres unmarked) [Example 58, N-hydroxy-N-[4-(5-phenoxy-2-furyl)-3-butyn-2-yl]urea] | 200 |  | 83
16 | CC(C#Cc1ccc(Sc2ccccc2)o1)N(O)C(N)=O (centres unmarked) [Example 59, N-hydroxy-N-[4-(5-thiophenoxy-2-furyl)-3-butyn-2-yl]urea] | 200 |  | 62
17 | Cc1ccc(Oc2ccc(C#CC(C)N(O)C(N)=O)o2)cc1 (centres unmarked) [Example 62, N-hydroxy-N-{4-[5-(4-methylphenoxy)-2-furyl]-3-butyn-2-yl}urea] | 300 |  | 65
18 | CC(C#Cc1cccc(Oc2nccs2)c1)N(O)C(N)=O (centres unmarked) [Example 66, N-Hydroxy-N-[4-[3-(2-thiazolyloxy)phenyl]-3-butyn-2-yl]urea] | 500 |  | 40
19 | Cc1cccc(Oc2cccc(C#CC(C)N(O)C(N)=O)c2)n1 (centres unmarked) [Example 67, N-Hydroxy-N-[4-[3-(6-methylpyridin-2-yloxy)phenyl]-3-butyn-2-yl]urea] | 300 |  | 56
